Measured values taken from publication PMC11978698, “Differential uptake of arginine derivatives by the human heteromeric amino acid transporter b^0,+AT-rBAT (SLC7A9-SLC3A1)” (Naunyn-Schmiedeberg's Archives of Pharmacology, 2024).
Blank lines part the entries; values can stand above or below the molecule they belong to.

What was measured:
[1] = target: T1, b0,+AT (SLC7A9), in the heteromeric transporter b0,+AT-rBAT (Homo sapiens, UniProt P82251); settings: read-out: radiolabeled uptake in double-transfected MDCK cells, not saturated up to 4000 μ
T1 sequence (P82251 1-487): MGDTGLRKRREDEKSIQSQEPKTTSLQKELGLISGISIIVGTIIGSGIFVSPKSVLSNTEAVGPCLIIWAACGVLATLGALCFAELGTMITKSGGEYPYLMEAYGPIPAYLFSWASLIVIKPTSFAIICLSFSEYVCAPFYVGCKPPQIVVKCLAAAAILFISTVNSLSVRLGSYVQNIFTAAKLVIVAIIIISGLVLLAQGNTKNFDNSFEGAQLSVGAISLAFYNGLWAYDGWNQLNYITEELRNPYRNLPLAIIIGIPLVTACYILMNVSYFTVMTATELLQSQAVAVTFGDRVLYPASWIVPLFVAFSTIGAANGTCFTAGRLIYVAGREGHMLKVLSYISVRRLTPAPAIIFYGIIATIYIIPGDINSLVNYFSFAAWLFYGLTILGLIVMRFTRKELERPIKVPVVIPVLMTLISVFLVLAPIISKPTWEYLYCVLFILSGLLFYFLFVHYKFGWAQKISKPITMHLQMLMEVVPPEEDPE
T1 sequence (Q07837 1-685 partner): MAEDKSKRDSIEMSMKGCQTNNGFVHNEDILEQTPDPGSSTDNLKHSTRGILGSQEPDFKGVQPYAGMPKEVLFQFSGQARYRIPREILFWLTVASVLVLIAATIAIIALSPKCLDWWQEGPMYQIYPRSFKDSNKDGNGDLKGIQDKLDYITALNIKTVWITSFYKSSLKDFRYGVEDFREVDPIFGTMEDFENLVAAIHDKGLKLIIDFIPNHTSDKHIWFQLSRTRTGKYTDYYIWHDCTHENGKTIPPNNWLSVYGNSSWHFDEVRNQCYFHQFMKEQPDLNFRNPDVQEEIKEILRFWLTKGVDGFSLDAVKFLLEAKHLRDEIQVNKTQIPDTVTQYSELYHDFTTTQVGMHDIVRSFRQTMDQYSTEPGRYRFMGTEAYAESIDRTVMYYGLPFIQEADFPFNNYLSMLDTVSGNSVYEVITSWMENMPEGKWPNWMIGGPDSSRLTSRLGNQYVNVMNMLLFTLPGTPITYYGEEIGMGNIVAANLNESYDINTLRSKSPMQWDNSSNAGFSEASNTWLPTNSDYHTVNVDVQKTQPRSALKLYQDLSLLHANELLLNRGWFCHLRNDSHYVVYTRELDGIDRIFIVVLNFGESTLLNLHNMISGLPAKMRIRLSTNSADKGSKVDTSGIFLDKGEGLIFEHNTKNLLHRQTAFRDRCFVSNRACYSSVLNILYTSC

[2] = target: T1, b0,+AT (SLC7A9), in the heteromeric transporter b0,+AT-rBAT; experiment: inhibition of radiolabeled L-arginine ([…]), L-homoarginine and ADMA uptake by […] L-cystine in double-transfected MDCK cells; assay type: cell-based; design: human b0,+AT (NM_001126335) co-expressed with human rBAT (NM_000341.3) in MDCKII cells; with rBAT (SLC3A1)
[3] = target: T1, b0,+AT (SLC7A9), in the heteromeric transporter b0,+AT-rBAT; experiment: cell-based
[4] = substrate: N=C(N)NCCCC[C@H](N)C(=O)O; experiment: cells, lysate or membranes

Km [1]: > 4000 µM
Molecule: CN(C)C(=N)NCCC[C@H](N)C(=O)O [asymmetric dimethylarginine]

Molecule: N[C@@H](CSSC[C@H](N)C(=O)O)C(=O)O [L-cystine]
inhibition of radiolabeled L-arginine (100 μM), L-homoarginine and ADMA uptake b [2]: the uptake of L-homoarginine (Fig. 9c) and ADMA (Fig. 9d) was significantly inhibited at the low tested concentrations

Molecule: N=C(N)NCCC[C@H](N)C(=O)O [L-arginine]
IC50 [3]: 116 µM

B1: b0,+AT (SLC7A9), in the heteromeric transporter b0,+AT-rBAT (Homo sapiens) (protein)
chain: T1 sequence (P82251 1-487)
Km [4]: 197.0 µM
